We go through 24 molecules from PubChem BioAssay AID330 (DTP/NCI, 2004).

The subject of the assay is P388 leukemia ip, CD2F1 mice, survival T/C. The experiment in a line: NCI In Vivo Anticancer Drug Screen. Data for tumor model P388 Leukemia (intraperitoneal) in CD2F1 (CDF1) mice. The note with it: endpoint: median survival time, higher = longer survival. Put shortly:
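Mice carrying the transplanted tumor received test compound or vehicle. Survival was recorded in each group, and the value is the treated-group measurement divided by that of the vehicle-treated control group.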

[1] abbreviates: dose: 60.0 mg/kg/injection, schedule: Q01DX005 (ip), vehicle: Klucel (hydroxypropylcellulose) (HPC).
[2] abbreviates: dose: 120.0 mg/kg/injection, schedule: Q01DX005 (ip), vehicle: Klucel (hydroxypropylcellulose) (HPC).
[3] abbreviates: dose: 50.0 mg/kg/injection, schedule: Q01DX009 (ip), vehicle: saline with Tween-80.
[4] abbreviates: dose: 100.0 mg/kg/injection, schedule: Q01DX009 (ip), vehicle: saline with Tween-80.
Where [5] appears, read: dose: 200.0 mg/kg/injection, schedule: Q01DX009 (ip), vehicle: saline with Tween-80.
The mark [6] stands for this setting: dose: 60.0 mg/kg/injection, schedule: Q01DX005 (ip), vehicle: saline with Tween-80.
Setting [7] is: dose: 120.0 mg/kg/injection, schedule: Q01DX005 (ip), vehicle: saline with Tween-80.
[8] abbreviates: dose: 240.0 mg/kg/injection, schedule: Q01DX005 (ip), vehicle: saline with Tween-80.
Where [9] appears, read: dose: 25.0 mg/kg/injection, schedule: Q01DX009 (ip), vehicle: other.
[10] abbreviates: dose: 25.0 mg/kg/injection, schedule: Q01DX005 (ip), vehicle: Klucel (hydroxypropylcellulose) (HPC).
The mark [11] stands for this setting: dose: 50.0 mg/kg/injection, schedule: Q01DX005 (ip), vehicle: Klucel (hydroxypropylcellulose) (HPC).
[12] abbreviates: dose: 100.0 mg/kg/injection, schedule: Q01DX005 (ip), vehicle: Klucel (hydroxypropylcellulose) (HPC).
[13] abbreviates: dose: 200.0 mg/kg/injection, schedule: Q01DX005 (ip), vehicle: Klucel (hydroxypropylcellulose) (HPC).
[14] abbreviates: dose: 100.0 mg/kg/injection, schedule: Q04DX003 (ip), vehicle: saline with Tween-80.
Where [15] appears, read: dose: 200.0 mg/kg/injection, schedule: Q04DX003 (ip), vehicle: saline with Tween-80.
Where [16] appears, read: dose: 400.0 mg/kg/injection, schedule: Q04DX003 (ip), vehicle: saline with Tween-80.
Where [17] appears, read: dose: 100.0 mg/kg/injection, schedule: Q01DX009 (ip), vehicle: Klucel (hydroxypropylcellulose) (HPC).
Setting [18] is: dose: 25.0 mg/kg/injection, schedule: Q01DX009 (ip), vehicle: Klucel (hydroxypropylcellulose) (HPC).

Where “and” joins values, the source holds several entries; their conditions need not be identical. Equal values may be shown once. Toxic doses and inconclusive results are not listed.

In the case of `O=C1OI(OI2OC(=O)c3ccccc32)c2ccccc21`, the T/C (dose: 15.0 mg/kg/injection, schedule: Q01DX005 (ip), vehicle: Klucel (hydroxypropylcellulose) (HPC)) was 102 % of control and 116 % of control; the T/C (dose: 30.0 mg/kg/injection, schedule: Q01DX005 (ip), vehicle: Klucel (hydroxypropylcellulose) (HPC)) was 104 % of control and 92 % of control; the T/C under setting [1] is 100 % of control and 101 % of control and 113 % of control; the T/C under setting [2] is 101 % of control and 113 % of control.
`ClCCN(CCCl)c1ccc(/C=N/Nc2ccnc3cc(Cl)ccc23)cc1`: the T/C is 95 % of control under setting [3], 101 % of control under setting [4] and 93 % of control under setting [5].
Consider `N=C(N)c1ccc(/C=C/c2cc3ccc(C(=N)N)cc3[nH]2)cc1`, for which the T/C (dose: 6.25 mg/kg/injection, schedule: Q04DX003 (ip), vehicle: saline) was 113 % of control.
Regarding `Cc1cc(Nc2ccc(O)cc2)nc(Nc2ccc(O)cc2)n1`, the T/C is 99 % of control under setting [6], 99 % of control under setting [7] and 103 % of control under setting [8].
For `O=C(Nc1ccc(OCc2ccccc2)cc1)c1cc2c(cc1Br)OCO2`, the T/C runs as follows: under setting [9], 106 % of control; (dose: 50.0 mg/kg/injection, schedule: Q01DX009 (ip), vehicle: other) 104 % of control; (dose: 100.0 mg/kg/injection, schedule: Q01DX009 (ip), vehicle: other) 106 % of control; (dose: 200.0 mg/kg/injection, schedule: Q01DX009 (ip), vehicle: other) 100 % of control; (dose: 400.0 mg/kg/injection, schedule: Q01DX009 (ip), vehicle: other) 100 % of control.
Take `O=C(/C=C/c1ccc2c(c1)OCO2)c1ccccc(=O)c1O`: the T/C by setting is: under setting [10], 95 % of control; under setting [11], 100 % of control; under setting [12], 101 % of control; under setting [13], 118 % of control.
`COc1ccc2cc3[n+](cc2c1O)CCc1cc2c(cc1-3)OCO2`: the T/C reads like this: (dose: 6.25 mg/kg/injection, schedule: Q01DX005 (ip), vehicle: Klucel (hydroxypropylcellulose) (HPC)) 99 % of control and 106 % of control; (dose: 12.5 mg/kg/injection, schedule: Q01DX005 (ip), vehicle: Klucel (hydroxypropylcellulose) (HPC)) 107 % of control and 96 % of control; under setting [10], 101 % of control and 117 % of control; under setting [11], 111 % of control; under setting [13], 179 % of control.
On to `Cc1ccc(S(=O)(=O)N2CCN(S(=O)(=O)c3ccc(C)cc3)COC2)cc1`, for which the T/C is 102 % of control under setting [6], 97 % of control under setting [7] and 104 % of control under setting [8].
In the case of `O=CNC(CSSCC(NC=O)C(=O)O)C(=O)O` (configuration not stated), the T/C is 101 % of control under setting [11]; 101 % of control under setting [12]; 113 % of control under setting [14]; 95 % of control under setting [13]; 90 % of control under setting [15]; 90 % of control under setting [16].
As for `Cc1ccccc1NC(=O)c1ccc([N+](=O)[O-])cc1`, the T/C was 100 % of control under setting [4]; 104 % of control under setting [5]; 90 % of control (dose: 400.0 mg/kg/injection, schedule: Q01DX009 (ip), vehicle: saline with Tween-80).
For the molecule `O=S(=O)(F)c1ccc(C[P+](c2ccccc2)(c2ccccc2)c2ccccc2)cc1Cl`, the T/C runs as follows: (dose: 15.0 mg/kg/injection, schedule: Q01DX005 (ip), vehicle: saline with Tween-80) 111 % of control; (dose: 30.0 mg/kg/injection, schedule: Q01DX005 (ip), vehicle: saline with Tween-80) 106 % of control; under setting [6], 110 % of control and 86 % of control.
For `O=S(=O)(O)O.O=S(=O)([O-])[O-].O=[N+]([O-])O.[Co+3].[Co+3].[NH2-].[NH2-].[NH2-].[NH2-].[NH2-].[NH2-].[NH2-].[NH2-].[NH2-]`, the T/C is 98 % of control (dose: 1.0 mg/kg/injection, schedule: Q01DX009 (ip), vehicle: saline) and 93 % of control (dose: 2.0 mg/kg/injection, schedule: Q01DX009 (ip), vehicle: saline).
As to `COc1ccc(/C=C2/SC(=S)N(Cc3ccco3)C2=O)cc1`, the T/C is 100 % of control (dose: 6.25 mg/kg/injection, schedule: Q01DX009 (ip), vehicle: saline with Tween-80); 91 % of control (dose: 12.5 mg/kg/injection, schedule: Q01DX009 (ip), vehicle: saline with Tween-80); 86 % of control under setting [5].
Consider `COc1cccc(C2OC3=C(Nc4ccccc4N3)C2=O)c1` (configuration not stated), for which the T/C runs as follows: under setting [10], 98 % of control; under setting [11], 100 % of control; under setting [1], 97 % of control; under setting [12], 94 % of control; under setting [2], 95 % of control; under setting [13], 94 % of control. Also, the T/C was 94 % of control (dose: 240.0 mg/kg/injection, schedule: Q01DX005 (ip), vehicle: Klucel (hydroxypropylcellulose) (HPC)) and 98 % of control (dose: 400.0 mg/kg/injection, schedule: Q01DX005 (ip), vehicle: Klucel (hydroxypropylcellulose) (HPC)).
As to `O=C1c2ccccc2C(O)(c2ccc(Cl)cc2)c2ccc(Cl)cc21` (configuration not stated), the T/C by setting is: (dose: 50.0 mg/kg/injection, schedule: Q01DX005 (ip), vehicle: saline with Tween-80) 95 % of control; (dose: 100.0 mg/kg/injection, schedule: Q01DX005 (ip), vehicle: saline with Tween-80) 98 % of control; (dose: 200.0 mg/kg/injection, schedule: Q01DX005 (ip), vehicle: saline with Tween-80) 101 % of control.
Consider `COC1C=CC(=O)C(C)(c2ccc(S(=O)(=O)c3ccccc3)cc2)O1` (configuration not stated), for which the T/C is 104 % of control under setting [6], 95 % of control under setting [7] and 106 % of control under setting [8].
With `COC(=O)C1=C(C)NC(=O)NC1c1ccc(OC)cc1` (configuration not stated), the T/C is 95 % of control under setting [14], 95 % of control under setting [15] and 100 % of control under setting [16].
For `CN(C)c1c(-c2ccccc2)nnc(-c2ccccc2)c1-c1ccccc1`, the T/C runs as follows: (dose: 100.0 mg/kg/injection, schedule: Q01DX001 (ip), vehicle: Klucel (hydroxypropylcellulose) (HPC)) 103 % of control; (dose: 200.0 mg/kg/injection, schedule: Q01DX001 (ip), vehicle: Klucel (hydroxypropylcellulose) (HPC)) 100 % of control; (dose: 400.0 mg/kg/injection, schedule: Q01DX001 (ip), vehicle: Klucel (hydroxypropylcellulose) (HPC)) 101 % of control.
With `CCCCCCCCCCCCCCCCS(=O)(=O)N/N=c1/sc2ccc(S(=O)(=O)O)cc2n1C`, the T/C was 115 % of control (dose: 50.0 mg/kg/injection, schedule: Q01DX009 (ip), vehicle: Klucel (hydroxypropylcellulose) (HPC)); 102 % of control under setting [17]; 94 % of control (dose: 200.0 mg/kg/injection, schedule: Q01DX009 (ip), vehicle: Klucel (hydroxypropylcellulose) (HPC)).
With `CCCCOCN(COCCCC)C12CC3CC(CC(C3)C1)C2`, the T/C under setting [3] was 113 % of control.
Regarding `CCCCCCCCCCCCCCCCCCCC`, the T/C (dose: 6.25 mg/kg/injection, schedule: Q01DX009 (ip), vehicle: other) was 112 % of control; the T/C (dose: 12.5 mg/kg/injection, schedule: Q01DX009 (ip), vehicle: other) was 90 % of control; the T/C under setting [9] was 111 % of control; the T/C (dose: 50.0 mg/kg/injection, schedule: Q04DX003 (ip), vehicle: other) is 91 % of control; the T/C (dose: 100.0 mg/kg/injection, schedule: Q04DX003 (ip), vehicle: other) was 91 % of control.
Turning to `C=C1C(=O)OC2CC1C(O)C/C(C)=C/CC/C(C)=C/C(O)CC2C` (configuration not stated), the T/C is 104 % of control (dose: 6.25 mg/kg/injection, schedule: Q01DX009 (ip), vehicle: Klucel (hydroxypropylcellulose) (HPC)); 110 % of control (dose: 12.5 mg/kg/injection, schedule: Q01DX009 (ip), vehicle: Klucel (hydroxypropylcellulose) (HPC)); 104 % of control and 112 % of control under setting [18].
As for `CCN(CC)CCCCCCCNc1cc(OC)cc2c(C)ccnc12`, the T/C (dose: 6.25 mg/kg/injection, schedule: Q01DX009 (ip), vehicle: saline) was 90 % of control; the T/C (dose: 12.5 mg/kg/injection, schedule: Q01DX009 (ip), vehicle: saline) was 93 % of control; the T/C (dose: 25.0 mg/kg/injection, schedule: Q01DX009 (ip), vehicle: saline) was 99 % of control.
Consider `Cc1cc(C)c(CCl)c(C)c1CCl`, for which the T/C was 106 % of control under setting [18] and 100 % of control under setting [17].
